Test results taken from the NIST ThermoML archive (doi:10.1021/acs.jced.8b00011).
Several values for one entry are separate records, joined by “and”; a condition that tells them apart may be missing. Equal entries are not always repeated. ± gives the expanded uncertainty stated by the source.

Details: Liquid; for electrical conductivity: electrochemical impedance spectroscopy; for mass density: Vibrating tube method

CCCCC[P+](CC)(CC)CC.O=S(=O)([N-]S(=O)(=O)C(F)(F)F)C(F)(F)F
Details | electrical conductivity [S/m] | viscosity
298.15 K, 60200 kPa, Falling or rolling sphere viscometry | – | 188.2 ± 8.8 mPa·s
298.15 K, 76900 kPa, Frequency=0 MHz | 0.0691 ± 0.0014 | –
298.15 K, 80100 kPa, Falling or rolling sphere viscometry | – | 237.6 ± 13 mPa·s
298.15 K, 99300 kPa, Frequency=0 MHz | 0.0551 ± 0.0011 | –
298.15 K, 100600 kPa, Falling or rolling sphere viscometry | – | 299.8 ± 18 mPa·s
298.15 K, 120600 kPa, Falling or rolling sphere viscometry | – | 374.6 ± 26 mPa·s
298.15 K, 120900 kPa, Falling or rolling sphere viscometry | – | 375.1 ± 26 mPa·s
298.15 K, 126100 kPa, Frequency=0 MHz | 0.0413 ± 0.00083 | –
298.15 K, 140500 kPa, Falling or rolling sphere viscometry | – | 464.2 ± 35 mPa·s
298.15 K, 149100 kPa, Frequency=0 MHz | 0.0333 ± 0.00067 | –
298.15 K, 160800 kPa, Falling or rolling sphere viscometry | – | 575.1 ± 48 mPa·s
298.15 K, 180200 kPa, Falling or rolling sphere viscometry | – | 703.8 ± 63 mPa·s
298.15 K, 199500 kPa, Falling or rolling sphere viscometry | – | 855.3 ± 82 mPa·s
298.15 K, 225400 kPa, Frequency=0 MHz | 0.0159 ± 0.00032 | –
298.15 K, 249800 kPa, Frequency=0 MHz | 0.0127 ± 0.00026 | –
298.16 K, 600 kPa, Frequency=0 MHz | 0.164 ± 0.0034 | –
298.16 K, 1600 kPa, Frequency=0 MHz | 0.162 ± 0.0032 | –
298.16 K, 201000 kPa, Frequency=0 MHz | 0.0201 ± 0.0004 | –
303.15 K, 100 kPa, Concentric cylinders viscometry | – | 67.86 ± 1.5 mPa·s
303.15 K, 100 kPa, Falling or rolling sphere viscometry | – | 68.41 ± 2.4 mPa·s
303.15 K, 700 kPa, Falling or rolling sphere viscometry | – | 68.43 ± 2.3 mPa·s
303.15 K, 10600 kPa, Falling or rolling sphere viscometry | – | 78.1 ± 2.1 mPa·s
303.15 K, 20600 kPa, Falling or rolling sphere viscometry | – | 88.77 ± 2.6 mPa·s
303.15 K, 30400 kPa, Falling or rolling sphere viscometry | – | 100.3 ± 3.1 mPa·s
303.15 K, 40600 kPa, Falling or rolling sphere viscometry | – | 113.6 ± 3.9 mPa·s
303.15 K, 50700 kPa, Falling or rolling sphere viscometry | – | 128 ± 4.7 mPa·s
303.15 K, 60800 kPa, Falling or rolling sphere viscometry | – | 144.1 ± 5.7 mPa·s
303.15 K, 80300 kPa, Falling or rolling sphere viscometry | – | 179.8 ± 8.2 mPa·s
303.15 K, 100100 kPa, Falling or rolling sphere viscometry | – | 223.2 ± 12 mPa·s
313.15 K, 100 kPa, Concentric cylinders viscometry | – | 43.97 ± 0.99 mPa·s
313.15 K, 100 kPa, Falling or rolling sphere viscometry | – | 44.35 ± 2.3 mPa·s [middle of 5 runs]
313.15 K, 700 kPa, Falling or rolling sphere viscometry | – | 44.4 ± 2.8 mPa·s
313.15 K, 10600 kPa, Falling or rolling sphere viscometry | – | 50.22 ± 1.1 mPa·s
313.15 K, 20600 kPa, Falling or rolling sphere viscometry | – | 56.64 ± 1.3 mPa·s
313.15 K, 30500 kPa, Falling or rolling sphere viscometry | – | 63.64 ± 1.5 mPa·s
313.15 K, 40500 kPa, Falling or rolling sphere viscometry | – | 71.42 ± 1.8 mPa·s
313.15 K, 50600 kPa, Falling or rolling sphere viscometry | – | 79.95 ± 2.2 mPa·s
313.15 K, 60600 kPa, Falling or rolling sphere viscometry | – | 89.14 ± 2.6 mPa·s
313.15 K, 80300 kPa, Falling or rolling sphere viscometry | – | 109.9 ± 3.7 mPa·s
313.15 K, 99900 kPa, Falling or rolling sphere viscometry | – | 134.5 ± 5.1 mPa·s
323.14 K, 800 kPa, Frequency=0 MHz | 0.434 ± 0.0087 | –
323.14 K, 3200 kPa, Frequency=0 MHz | 0.423 ± 0.0085 | –
323.14 K, 101600 kPa, Frequency=0 MHz | 0.17 ± 0.0034 | –
323.14 K, 150900 kPa, Frequency=0 MHz | 0.113 ± 0.0023 | –
323.14 K, 175500 kPa, Frequency=0 MHz | 0.0922 ± 0.0019 | –
323.15 K, 100 kPa, Concentric cylinders viscometry | – | 30.06 ± 0.68 mPa·s
323.15 K, 100 kPa, Falling or rolling sphere viscometry | – | 29.89 ± 1.3 mPa·s [middle of 5 runs]
323.15 K, 100 kPa, Frequency=0 MHz | 0.437 ± 0.0092 | –
323.15 K, 700 kPa, Falling or rolling sphere viscometry | – | 30.1 ± 1.6 mPa·s
323.15 K, 2200 kPa, Frequency=0 MHz | 0.427 ± 0.0086 | –

Details | electrical conductivity | mass density
303.15 K, 100 kPa | – | 1298.32 ± 1.3 kg/m3 [middle of 6 runs]
303.15 K, 101.33 kPa | 0.208 S/m and 0.207 S/m | –
303.15 K, 1000 kPa | – | 1298.99 ± 1.3 kg/m3
303.15 K, 5000 kPa | – | 1301.97 ± 1.3 kg/m3
303.15 K, 10000 kPa | – | 1305.55 ± 1.3 kg/m3
303.15 K, 15000 kPa | – | 1309.08 ± 1.4 kg/m3
303.15 K, 20000 kPa | – | 1312.5 ± 1.4 kg/m3
303.15 K, 25000 kPa | – | 1315.86 ± 1.4 kg/m3
303.15 K, 30000 kPa | – | 1319.11 ± 1.4 kg/m3
303.15 K, 35000 kPa | – | 1322.31 ± 1.5 kg/m3
303.15 K, 40000 kPa | – | 1325.42 ± 1.5 kg/m3
303.15 K, 45000 kPa | – | 1328.53 ± 1.6 kg/m3
303.15 K, 50000 kPa | – | 1331.53 ± 1.6 kg/m3
308.15 K, 101.33 kPa | 0.256 S/m and 0.255 S/m | –
313.15 K, 100 kPa | – | 1290.13 ± 1.8 kg/m3 [middle of 6 runs]
313.15 K, 101.33 kPa | 0.31 S/m | –
313.15 K, 1000 kPa | – | 1291.1 ± 1.3 kg/m3
313.15 K, 5000 kPa | – | 1294.18 ± 1.3 kg/m3
313.15 K, 10000 kPa | – | 1297.91 ± 1.3 kg/m3
313.15 K, 15000 kPa | – | 1301.54 ± 1.3 kg/m3
313.15 K, 20000 kPa | – | 1305.07 ± 1.4 kg/m3
313.15 K, 25000 kPa | – | 1308.48 ± 1.4 kg/m3
313.15 K, 30000 kPa | – | 1311.85 ± 1.4 kg/m3
313.15 K, 35000 kPa | – | 1315.16 ± 1.5 kg/m3
313.15 K, 40000 kPa | – | 1318.37 ± 1.5 kg/m3
313.15 K, 45000 kPa | – | 1321.53 ± 1.5 kg/m3
313.15 K, 50000 kPa | – | 1324.64 ± 1.6 kg/m3
318.15 K, 101.33 kPa | 0.371 S/m and 0.372 S/m | –
323.15 K, 100 kPa | – | 1281.76 ± 1.8 kg/m3 [middle of 6 runs]
323.15 K, 101.33 kPa | 0.437 S/m and 0.44 S/m and 0.441 S/m | –
323.15 K, 1000 kPa | – | 1282.87 ± 1.3 kg/m3
